Results from patent US5952321A, “Substituted azetidinones as anti-inflammatory and antidegenerative agents” (Merck & Co., Inc., priority 1996, dated 1999).

Target: T1, Human Polymorphonuclear Leukocyte Elastase (Homo sapiens, UniProt P08246)
T1 sequence (P08246 30-267): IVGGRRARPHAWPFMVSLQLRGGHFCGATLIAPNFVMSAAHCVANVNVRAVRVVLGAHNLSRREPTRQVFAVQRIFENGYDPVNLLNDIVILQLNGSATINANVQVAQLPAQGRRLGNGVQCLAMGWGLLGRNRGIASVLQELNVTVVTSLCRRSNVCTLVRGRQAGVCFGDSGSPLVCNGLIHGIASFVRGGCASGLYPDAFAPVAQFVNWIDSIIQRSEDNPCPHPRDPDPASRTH
Test: Inhibition of human polymorphonuclear leukocyte elastase via hydrolysis of Boc-AAPAN or Boc-AAPVN
Type: biochemical
Conditions: pH 7.5, Table I; second order rate constant for inactivation of the enzyme; read-out: Kobs /[I]
Method: Enzyme Assays for the Inhibition of Human Polymorphonuclear Leukocyte Elastase Via Hydrolysis of N-t-Boc-alanyl-alanyl-prolylalanine-p-nitroanilide (Boc-AAPAN) or […] (Boc-AAPVN) Reagent:
0.05M TES (N-tris[hydroxymethyl]methyl-2-amino-ethanesulfonic acid) Buffer, pH 7.5.
0.2 mM Boc-AAPAN or Boc-AAPVN.
To prepare substrate, the solid was first dissolved in 10.0 ml DMSO. Buffer at pH 7.5 was then added to a final volume of 100 ml.
Crude extract of human polymorphonuclear leukocytes (PMN) containing elastase activity.
Inhibitors (azetidinones) to be tested dissolved in DMSO just before use.
To 1.0 ml of 0.2 mM Boc-AAPAN in a cuvette, 0.01-0.1 ml of DMSO with or without inhibitor was added. After mixing, a measurement was taken at 410 mμ to detect any spontaneous hydrolysis due to presence of test compound. 0.05 Milliliters of PMN extract was then added and the ΔOD/min at 410 mμ was measured and recorded. Beckman model 35 spectrophotometer was used.
Results in Tables I to III were reported as ID50, effective dosage in micrograms per milliliter (μg/ml) for 50% inhibition of the enzyme activity 2 minutes after zero time.
Results were also expressed as Ki, the micromolar concentration of the inhibitor (μM) giving 50% of the control enzyme activity; or as ^k obs/I which is the second order rate constant in per mole per second for inactivation of the enzyme.
The elastase activity in the crude PMN extract may vary from one preparation to another. A control of each new batch is run, and the volume added in the assay procedure is adjusted according to activity.

| SMILES | kinact/KI [M⁻¹ s⁻¹] |
| --- | --- |
| CCC[C@@H](NC(=O)N1C(=O)C(CC)(CC)[C@@H]1Oc1ccc(CN2CCN(C(C)=O)CC2)cc1)c1ccc(C)cc1 [R4+R5=--CH2 CH2 N(Ac)CH2 CH2 --; R6=H] | 950000 |
| CCC[C@@H](NC(=O)N1C(=O)C(CC)(CC)[C@@H]1Oc1ccc(CN(C)CCO)cc1)c1ccc(C)cc1 [R4=Me; R5=CH2 CH2 OH; R6=H] | 560000 |
| CCC[C@@H](NC(=O)N1C(=O)C(CC)(CC)[C@@H]1Oc1ccc(CNC(=O)NC)cc1)c1ccc(C)cc1 [R4=H; R5=CONHMe; R6=H, (4S)-3,3-Diethyl-1-[(R)-α-(n-propyl)-4-(methyl)benzylaminocarbonyl]-4-[(4-((N-methyl)aminocarbonyl)aminomethyl)phenoxy]azetidin-2-one] | 1.1e+06 |
| CCC[C@@H](NC(=O)N1C(=O)C(CC)(CC)[C@@H]1Oc1ccc(CN(CCOC)CCOC)cc1)c1ccc(C)cc1 [R4=CH2 CH2 OMe; R5=CH2 CH2 OMe; R6=H] | 820000 |
| CCC[C@@H](NC(=O)N1C(=O)C(CC)(CC)[C@@H]1Oc1ccc(C2CCCN2CCOCC)cc1)c1ccc(C)cc1 (stereo partly drawn) [R4=CH2 CH2 OEt; R5+R6=--CH2 CH2 CH2 --] | 1.1e+06 |
| CCC[C@@H](NC(=O)N1C(=O)C(CC)(CC)[C@@H]1Oc1ccc(CN2CC(C)NC(C)C2)cc1)c1ccc(C)cc1 (stereo partly drawn) [R4+R5=--CH2 CHMeNCHMeCH2 --; R6=H] | 980000 |
| CCC[C@@H](NC(=O)N1C(=O)C(CC)(CC)[C@@H]1Oc1ccc(CN2C(C)CCC2C)cc1)c1ccc(C)cc1 (stereo partly drawn) [R4+R5=--CHMeCH2 CH2 CHMe--; R6=H] | 670000 |
| CCC[C@@H](NC(=O)N1C(=O)C(CC)(CC)[C@@H]1Oc1ccc(C(COC)N(C)CCC)cc1)c1ccc(C)cc1 (mixture of isomers) [R4=Me; R5=n-Pr; R6=CH2 OMe, 3,3-Diethyl-1-[(R)-α-(n-propyl)-4-(methyl)benzylaminocarbonyl]-4-(S)-[4-{1-(RS)-(N-(n-propyl)-N-(methyl)amino)-2-methoxyethyl}phenoxy]azetidin-2-one] | 1.5e+06 |
| CCC[C@@H](NC(=O)N1C(=O)C(CC)(CC)[C@@H]1Oc1ccc(C(C)N(C)CCOCCOC)cc1)c1ccc(C)cc1 (stereo partly drawn) [R4=Me; R5=CH2 CH2 OCH2 CH2 OMe; R6=Me] | 825000 |
| CCC[C@@H](NC(=O)N1C(=O)C(CC)(CC)[C@@H]1Oc1ccc(CN2C(C)CCCC2C)cc1)c1ccc(C)cc1 (stereo partly drawn) [R4+R5=--CHMeCH2 CH2 CH2 CHMe--; R6=H] | 1.15e+06 |
| CCC[C@@H](NC(=O)N1C(=O)C(CC)(CC)[C@@H]1Oc1ccc(CN(C)C(C)COC)cc1)c1ccc(C)cc1 (stereo partly drawn) [R4=Me; R5=CH(Me)CH2 OMe; R6=H] | 1.22e+06 |
| CCC[C@@H](NC(=O)N1C(=O)C(CC)(CC)[C@@H]1Oc1ccc(C(COC)N(CCC)CCC)cc1)c1ccc(C)cc1 (stereo partly drawn) [R4=n-Pr; R5=n-Pr; R6=CH2 OMe, 3,3-Diethyl-1-[(R)-α-(n-propyl)-4-(methyl)benzylaminocarbonyl]-4-(S)-[4-{1-(RS)-(di-n-propyl)-2-methoxyethyl}phenoxy]azetidin-2-one] | 1e+06 |
| CCC[C@@H](NC(=O)N1C(=O)C(CC)(CC)[C@@H]1Oc1ccc(CNC(=O)CN(C)Cc2ccccc2)cc1)c1ccc(C)cc1 [R4=H; R5=COCH2 N(Me)Bn; R6=H] | 1.4e+06 |
| CCC[C@@H](NC(=O)N1C(=O)C(CC)(CC)[C@@H]1Oc1ccc(C(COC)N(C)C)cc1)c1ccc(C)cc1 (mixture of isomers) [R4=Me; R5=Me; R6=CH2 OMe, 3,3-Diethyl-1-[(R)-α-(n-propyl)-4-(methyl)benzylaminocarbonyl]-4-(S)-[4-{1-(RS)-(N,N-dimethylamino)-2-methoxyethyl}phenoxy]azetidin-2-one] | 1.28e+06 |
| CCC[C@@H](NC(=O)N1C(=O)C(CC)(CC)[C@@H]1Oc1ccc([C@H](C)N(C)CCOC)cc1)c1ccc(C)cc1 [R4=Me; R5=CH2 CH2 OMe; R6=(S)--Me, (4S)-3,3-Diethyl-4-{(S)-4-[1-((2-methoxyethyl)methylamino)ethyl]phenoxy}-1-[(R)-α-n-propyl-(4-methyl)benzylaminocarbonyl]azetidin-2-one] | 515000 |
| CCC[C@@H](NC(=O)N1C(=O)C(CC)(CC)[C@@H]1Oc1ccc(C(C)N(C)CCOC(=O)N(C)C)cc1)c1ccc(C)cc1 (stereo partly drawn) [R4=Me; R5=CH2 CH2 OCONMe2; R6=Me] | 925000 |
| CCC[C@@H](NC(=O)N1C(=O)C(CC)(CC)[C@@H]1Oc1ccc(C2CCCN2CCOC)cc1)c1ccc(C)cc1 (mixture of isomers) [R4=CH2 CH2 OMe; R5+R6=--CH2 CH2 CH2 --, 3,3-Diethyl-1-[(R)-α-(n-propyl)-4-(methyl)benzylaminocarbonyl]-4-(S)-[4-{2-(RS)-(N-(2-methoxyethyl)pyrrolidino)}phenoxy]azetidin-2-one] | 940000 |
| CCC[C@@H](NC(=O)N1C(=O)C(CC)(CC)[C@@H]1Oc1ccc(CN(C)CCOC(=O)N(CC)CC)cc1)c1ccc(C)cc1 [R4=Me; R5=CH2 CH2 OCONEt2; R6=H] | 1.23e+06 |
| CCC[C@@H](NC(=O)N1C(=O)C(CC)(CC)[C@@H]1Oc1ccc(CNC(=O)Cc2c[nH]cn2)cc1)c1ccc(C)cc1 [R4=H; R5=COCH2-4-imidazolyl; R6=H, (4S)-3,3-Diethyl-1-[(R)-α-(n-propyl)-4-(methyl)benzylaminocarbonyl]-4-[(4-((4-imidazolyl)methylcarbonyl)aminomethyl)phenoxy]azetidin-2-one] | 850000 |
| CCC[C@@H](NC(=O)N1C(=O)C(CC)(CC)[C@@H]1Oc1ccc(CN(C)CC(=O)N(CCC)CCC)cc1)c1ccc(C)cc1 [R4=Me; R5=CH2 CON(n-Pr)2; R6=H] | 910000 |
| CCC[C@@H](NC(=O)N1C(=O)C(CC)(CC)[C@@H]1Oc1ccc(CN(C)CCOC(=O)N(C)C)cc1)c1ccc(C)cc1 [R4=Me; R5=CH2 CH2 OCONMe2; R6=H, (4S)-3,3-Diethyl-1-[(R)-α-n-propyl-(4-methyl)benzylaminocarbonyl]-4-[(4-((2-dimethylaminocarbonyloxy)ethyl)methylaminomethyl)phenoxy]azetidin-2-one] | 610000 |
| CCC[C@@H](NC(=O)N1C(=O)C(CC)(CC)[C@@H]1Oc1ccc(Cn2ccnc2CC)cc1)c1ccc(C)cc1 [R4+R5=--CHCHNCEt--; R6=H] | 2.25e+06 |
| CCC[C@@H](NC(=O)N1C(=O)C(CC)(CC)[C@@H]1Oc1ccc(CN(C)CCSC)cc1)c1ccc(C)cc1 [R4=Me; R5=CH2 CH2 SMe; R6=H] | 675000 |
| CCC[C@@H](NC(=O)N1C(=O)C(CC)(CC)[C@@H]1Oc1ccc(C(COC)N(C)C(C)C)cc1)c1ccc(C)cc1 (stereo partly drawn) [R4=Me; R5=i-Pr; R6=CH2 OMe] | 800000 |
| CCC[C@@H](NC(=O)N1C(=O)C(CC)(CC)[C@@H]1Oc1ccc(CN(C)CCS(=O)(=O)CC)cc1)c1ccc(C)cc1 [R4=Me; R5=CH2 CH2 SO2 Et; R6=H, (4S)-3,3-Diethyl-1-[(R)-α-n-propyl-(4-methyl)benzylaminocarbonyl]-4-[(4-((2-thioethyl)ethyl)methylaminomethyl)phenoxy]azetidin-2-one. S-dioxide.] | 1.5e+06 |
| CCC[C@@H](NC(=O)N1C(=O)C(CC)(CC)[C@@H]1Oc1ccc(CN2CCSC2)cc1)c1ccc(C)cc1 [R4+R5=--CH2 CH2 SCH2 --; R6=H] | 940000 |
| CCC[C@@H](NC(=O)N1C(=O)C(CC)(CC)[C@@H]1Oc1ccc([C@@H](C)N(C)CCOC)cc1)c1ccc(C)cc1 [R4=Me; R5=CH2 CH2 OMe; R6=(R)--Me, (4S)-3,3-diethyl-4-{(R)-4-[1-((2-methoxyethyl)methylamino)ethyl]phenoxy}-1-[(R)-α-n-propyl-(4-methyl)benzylaminocarbonyl]azetidin-2-one] | 525000 |
| CCC[C@@H](NC(=O)N1C(=O)C(CC)(CC)[C@@H]1Oc1ccc(CNC(=O)CCN(CC)CC)cc1)c1ccc(C)cc1 [R4=H; R5=COCH2 CH2 N Et2; R6=H] | 850000 |
| CCC[C@@H](NC(=O)N1C(=O)C(CC)(CC)[C@@H]1Oc1ccc(CN2CCN(C(=O)OC)CC2)cc1)c1ccc(C)cc1 | 730000 |

Same assay, conditions: pH 7.5, Table III; second order rate constant for inactivation of the enzyme; read-out: Kobs /[I]

| SMILES | kinact/KI [M⁻¹ s⁻¹] |
| --- | --- |
| CCC[C@@H](NC(=O)N1C(=O)C(CC)(CC)[C@@H]1Oc1ccc(CN2CCN(C(=O)N(C)C)CC2)cc1)c1ccc2c(c1)OCO2 [(4S)-3,3-Diethyl-1-[(R)-α-n-propyl-3,4-methylenedioxy)benzylaminocarbonyl]-4-[(4-((4-diemthylaminocarbonyl)piperazin-1-yl)methyl)phenoxy]azetidin-2-one] | 4e+06 |
| CCC[C@@H](NC(=O)N1C(=O)C(CC)(CC)[C@@H]1Oc1ccc(CN(C)CCOC)c(C)c1)c1ccc(C)cc1 | 540000 |
| CCC[C@@H](NC(=O)N1C(=O)C(CC)(CC)[C@@H]1Oc1ccc(CN(CC)CCOC)c(C)c1)c1ccc(C)cc1 | 450000 |
| CCC[C@@H](NC(=O)N1C(=O)C(CC)(CC)[C@@H]1Oc1ccc(CN(CC)CCOC)cc1)c1ccc(OCC)cc1 | 1.12e+06 |
